Experimental data: paper PMC10349806 (Nature Communications, 2023)
Where “and” joins values, the source holds several entries; their conditions need not be identical. Equal values may be shown once.

Assays:
[1] = test system: PfCRT variant N84A; assay: CQ uptake assay, oocytes expressing N84A; format: cell-based, Plasmodium falciparum
Method: (§1) Site-directed mutagenesis of PfCRT^Dd2 was performed as described using the megaprimer method with overlap extension[21],[54]. The primer pairs used are listed in Supplementary Table 6. Please note that a codon-optimized and oocyte-adapted version of PfCRT^Dd2 was used[22] (Supplementary Fig. 16). The resulting DNA fragment was cloned into the SP64T expression vector and verified by sequencing.
(§2) Oocytes were obtained as described previously. Briefly, adult (>2 years old) female X. laevis frogs (NASCO) were anesthetized in a cooled solution of ethyl 3-amino benzoate methanesulfonate (0.1%, w/v), followed by a surgical removal of parts of the ovary. The ovary lobes were carefully dissected and small pieces of oocytes were incubated in Ca^2+-free ND96 buffer (96 mM NaCl, 2 mM KCl, 1 mM MgCl2 buffered with 5 mM HEPES/NaOH, pH 7.5) supplemented with collagenase D (0.1%, w/v; Roche), BSA (0.5%, w/v), and 9 mm Na2HPO4 at 18 °C for 14-16 h while gentle shaking. After incubation, the oocytes were carefully washed several times with ND96 buffer (96 mM NaCl, 2 mM KCl, 1.8 mM CaCl2, 1 mM MgCl2 buffered with 5 mM HEPES/NaOH, pH 7.5) supplemented with 100 mg l^−1 gentamycin). Defolliculated and healthy-looking stage V-VI oocytes were manually selected for RNA microinjection. The RNA was generated as following: The codon-optimized sequences of PfCRT variants were cloned into the pSP64T expression vector. After vector linearization using the restriction endonucleases BamHI or SalI (New England Biolabs), transcription was performed using the in vitro SP6 mMessage mMachine Kit (Ambion)[34]. The obtained RNA was kept at −80 °C and diluted with nuclease-free water to a concentration of 0.6 μg μl^−1. Precision-bore glass capillary tubes (3.5-inch glass capillaries; Drummond Scientific Co.) were pulled on a vertical puller (P-87 Flaming/Brown micropipette puller, Sutter Instrument Co.), graduated, and placed on a microinjector (Nanoject II Auto-Nanoliter Injector, Drummond Scientific Co.). 50 nl of nuclease-free water alone (control oocytes) or 50 nl of 0.6 μg μl^−1 RNA were injected under stereomicroscopic control. Injected oocytes were incubated for 46–72 h at 18 °C with twice-daily buffer changes before usage in experiments.
Drug uptake assays were performed as described previously[21],[22],[24],[34]. […] The direction of radio-labeled drug transport is here from the mostly acidic extracellular solution (pH 4.5 or 6.0, as indicated) into the oocyte cytosol (pH ∼ 7.2), which corresponds to the efflux of drug from the acidic digestive vacuole (pH 5.2) into the parasite cytoplasm (pH 7.2). The topology of PfCRT in the oolemma is such that both the N- and C-terminus face the extracellular milieu[3],[22]. In the parasite, the N- and C-terminus face the lumen of the digestive vacuole. […] For determination of the amount of drug uptake for each oocyte, the reaction medium was removed and the oocytes were washed three times with 2 ml of ice-cold ND96 buffer. Each oocyte was individually transferred to a scintillation vial containing 5% sodium dodecyl sulfate (200 μl) for lysis. […] Oocytes that were injected with water instead of RNA were analyzed in parallel, representing the uptake of a drug by diffusion and/or endogenous permeation pathways. The resulting value represents the “background“ level of drug accumulation in oocytes (in-depth discussion in[22]). The specific PfCRT-mediated uptake was determined by subtracting the corresponding background value measured in water-injected oocytes from that of PfCRT-expressing oocytes. In all cases, at least three separate experiments were performed on oocytes from different frogs (biological replicate), and for each condition in an experiment, measurements were made from 10 oocytes per treatment. For pH 5.5, 6.0, and 6.5, ND96 was buffered with 5 mM MES/Tris base.

[2] = biological target: T1, PfCRT variant D310A (Plasmodium falciparum, UniProt Q9N623, A220S/D310A/I356T/K76T/M74I/N326S/N75E/Q271E/R371I); assay: CQ uptake assay, oocytes expressing D310A; format: cell-based
T1 sequence (Q9N623 1-424 M74I/N75E/K76T/A220S/Q271E/D310A/N326S/I356T/R371I): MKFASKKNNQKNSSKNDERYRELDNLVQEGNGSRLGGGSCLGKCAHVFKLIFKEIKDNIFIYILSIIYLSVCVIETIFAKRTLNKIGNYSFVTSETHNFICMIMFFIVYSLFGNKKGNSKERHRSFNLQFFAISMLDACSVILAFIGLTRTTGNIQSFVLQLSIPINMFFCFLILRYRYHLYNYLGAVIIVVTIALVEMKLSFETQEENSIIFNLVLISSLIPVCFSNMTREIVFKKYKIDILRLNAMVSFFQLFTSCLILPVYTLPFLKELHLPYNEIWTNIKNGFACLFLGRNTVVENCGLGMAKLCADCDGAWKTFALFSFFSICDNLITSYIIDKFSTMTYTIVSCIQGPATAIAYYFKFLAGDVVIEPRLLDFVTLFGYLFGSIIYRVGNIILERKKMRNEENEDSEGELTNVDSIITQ
Method: as §1, §2
Drug uptake assays were performed as described previously[21],[22],[24],[34]. […] The direction of radio-labeled drug transport is here from the mostly acidic extracellular solution (pH 4.5 or 6.0, as indicated) into the oocyte cytosol (pH ∼ 7.2), which corresponds to the efflux of drug from the acidic digestive vacuole (pH 5.2) into the parasite cytoplasm (pH 7.2). The topology of PfCRT in the oolemma is such that both the N- and C-terminus face the extracellular milieu[3],[22]. In the parasite, the N- and C-terminus face the lumen of the digestive vacuole. CQ uptake kinetics were performed by incubating oocytes in ND96 buffer adjusted to a pH of 4.5, 5.0, 5.5, or 6.0 and supplemented with 50 nM [^3H]CQ and one of 7 different CQ concentrations (10 µM, 50 µM, 100 µM, 200 µM, 300 µM, 400 µM, 500 µM CQ). The reaction was stopped at the 60 min time point, which is in the linear uptake range[22],[34] (Supplementary Fig. 17). For determination of the amount of drug uptake for each oocyte, the reaction medium was removed and the oocytes were washed three times with 2 ml of ice-cold ND96 buffer. Each oocyte was individually transferred to a scintillation vial containing 5% sodium dodecyl sulfate (200 μl) for lysis. The radioactivity of each sample was measured using a liquid scintillation analyzer Tri-Carb 4910 TR (PerkinElmer). Oocytes that were injected with water instead of RNA were analyzed in parallel, representing the uptake of a drug by diffusion and/or endogenous permeation pathways. The resulting value represents the “background“ level of drug accumulation in oocytes (in-depth discussion in[22]). […]

[3] = N84A, 50 µM CQ, 1 h, mean ± SEM
[4] = D310A, 50 µM CQ, 1 h, mean ± SEM

SMILES: CCN(CC)CCCC(C)Nc1ccnc2cc(Cl)ccc12 (stereo not drawn) [CQ, chloroquine]
- Activity at pH 4.5 [1, 3]: 1.41 ± 0.23 pmol h-1 oocyte-1
- Activity at pH 6.0 [1, 3]: 3.24 ± 0.32 pmol h-1 oocyte-1
- R-value ([1]; N84A, CQ transport at pH 4.5 / pH 6.0): 0.42 ± 0.04 and 0.42
- N84A transport activity pH 4.5 ([1]; pH 4.5, individual replicates (Fig 6a)): 1.45 pmol oocyte-1 h-1 and 0.73 pmol oocyte-1 h-1 and 1.46 pmol oocyte-1 h-1 and 2.00 pmol oocyte-1 h-1
- N84A transport activity pH 6.0 ([1]; pH 6.0, individual replicates (Fig 6a)): 3.16 pmol oocyte-1 h-1 and 3.18 pmol oocyte-1 h-1 and 4.19 pmol oocyte-1 h-1
- N84A R-value ([1]; transport activity pH 4.5 relative to pH 6.0 (Fig 6a)): 0.46 and 0.30 and 0.48
- Activity at pH 4.5 [2, 4]: 0.96 ± 0.15 pmol h-1 oocyte-1
- Activity at pH 6.0 [2, 4]: 1.25 pmol h-1 oocyte-1 and 1.25 ± 0.18 pmol h-1 oocyte-1
- R-value ([2]; D310A, CQ transport at pH 4.5 / pH 6.0): 0.77 and 0.77 ± 0.07
- D310A transport activity pH 4.5 ([2]; pH 4.5, single replicates, Fig 1d left): 0.65 pmol oocyte-1 h-1 and 1.30 pmol oocyte-1 h-1 and 0.92 pmol oocyte-1 h-1
- D310A R-value ([2]; pH 4.5 vs pH 6.0, Fig 1d left): 0.79 and 0.92 and 0.61
- D310A transport activity pH 6.0 ([2]; pH 6.0, single replicates, Fig 1d left): 0.82 pmol oocyte-1 h-1 and 1.42 pmol oocyte-1 h-1 and 1.51 pmol oocyte-1 h-1
